Assay results published in patent publication US7232798B2, “Neuroprotection and neuroegenisis by administering cyclic prolyl glycine” (priority 2001, dated 2007).

Key:
[1] = fetal sheep, cited from earlier work
[2] = system: rat Hippocampal Organotypic cultures exposed to NMDA; settings: lower (1 μM) or higher (50-100 μM) concentrations reduced neuronal damage to a lesser extent; cited from earlier work
[3] = system: cerebellar microexplants (P4); test: Glutamate toxicity in P4 cerebellar microexplants and rescue by cPG; format: cell-based, Wistar rats
Protocol: Cerebellar Cell Culture Preparing and Coating of Cover Slips
Ten coverslips were placed into a large petri dish and washed in 70% alcohol for 5 minutes, then washed with Millipore H2O. The coverslips were air dried, then coated with Poly-D-Lysine (1 mg/ml stock solution in PBS, 90-100 μl) and incubated for 2 hours at 34 C.
Postnatal day 4 Wistar rats were used for the study. Rats were placed in ice for 1 minute, the heads were decapitated and the cerebellum removed on ice. […] The tissue was sieved through (125 μm pore size gaze) and centrifuged (2 minutes at 60 g) two times for a medium exchange into serum-free BSA-supplemented START V medium (Biochrom). The second centrifugation step was done with 1 ml of START V medium. The microexplants were reconstituted into 500 μl of START V medium and put on ice
Two hours after PDL-coating, the slides were washed with Millipore H2O and air dried. Each slide was placed into a small 35 mm petri dish and 40 μl of START V/cell suspension added. The tissue was incubated for 2 hours at 34 C (settlement period). START V-medium (1 ml) was then added to the petri dish and cultivated at 34 C/5% CO2/100% humidity for 48 hours. […] Finally, the microexplants were rinsed in PBS.
10 μl of toxin (L-glutamate-100 mM in Millipore water) was applied simultaneously with cPG (from bachem, 10 mM stock prepared in PBS and diluted to final concentrations between 1-100 nM) for Study 1. A delay in administration of cPG at 6 hours after glutamate treatment was performed for Study 2.

[4] = system: 6-OHDA induced nigral-striatal lesion; test: Apomorphine-induced rotations after 6-OHDA induced nigral-striatal lesion; format: in vivo, Wistar rats
Protocol: Twenty male Wistar rats (280-310 g) were used. After exposing the skull, 6-OHDA (8 μg in a base of 2 μl 0.9% saline containing 1% ascorbic acid) was administered into the right medial forebrain bundle (MFB) using co-ordinates AP +4.7 mm, R 1.6 mmv-8 mm under 3% halothane anaesthesia. 6-OHDA was injected through a 25 G needle connected via a polyethylene catheter to a 100 μl Hamilton syringe. The 6-OHDA was infused by a microdialysis infusion pump at a rate of 0.5 μl/min. The needle was left in the brain for a further 3 minutes before being slowly withdrawn. The skin was sutured with 2.0 silk and the rats were allowed to recover from anaesthesia. The rats were housed in a holding room with free access to food and water at all times except during behavioural testing.
Cyclic PG was dissolved in saline. Four different doses of cPG (0, 0.1 0.5 1 mg/kg, Bachem) were administered intraperitoneally 2 h post lesion.
At 7 days post-lesion, rats were injected with 0.1 mg/kg apomorphine and the number of contralateral rotations/hour was recorded and calculated using a computerised Rotameter (St Diego Instruments). Experimenter was blinded from the treatment groups.

In the case of insulin-like growth factor I [IGF-I], the “dose at which all the neuroprotective effects are lost” value ([1]; 1 μg more neuroprotective than 100 ng) is listed as 10 µg and the “dose that usually killed the sheep fetus” value [1] is listed as no less than 100 µg.

In the case of glycine-proline-glutamate [GPE], the “concentration giving the highest degree of neuroprotection” value [2] is given as 10 µM.

In the case of `O=C1NCC(=O)N2CCC[C@@H]12` [cPG, cyclic Prolyl Glycine], the “neuron number compared to the normal control group” value ([3]; a further lower dose of cPG) is reported as “significant increase”, the glutamate-induced neurotoxicity ([3]; given either immediately or 6 hours after the glutamate treatment) is reported as “completely prevented” and the “number of contralateral rotations/hour” value ([4]; 1 mg cPG intraperitoneally 2 h post lesion, 7 days post-lesion, 0.1 mg/kg apomorphine, n=5, FIG. 5) is reported as 154±64.1 rotations/hour. The “reduction of functional deficit (apomorphine induced rotations)” value ([4]; highest dose tested (1 mg/kg), ns) was 47%.

With `N[C@@H](CCC(=O)O)C(=O)O` [Glutamate, L-glutamate, reference compound] the “loss of cerebellum neurons” value ([3]; Study 1, glutamate treatment alone) was 85%.
